Read-outs that look alike come from different tables or passages of the source.
Legend:
Colo205 cells = experiment: Analysis of cell proliferation and viability; format: cell-based; details: Homo sapiens, COLO 205, Colo205 cells, read-out: IC50 value
JAK3 = target: T1, JAK3 (Homo sapiens, UniProt P52333); experiment: biochemical
T1 sequence (P52333 1-1124): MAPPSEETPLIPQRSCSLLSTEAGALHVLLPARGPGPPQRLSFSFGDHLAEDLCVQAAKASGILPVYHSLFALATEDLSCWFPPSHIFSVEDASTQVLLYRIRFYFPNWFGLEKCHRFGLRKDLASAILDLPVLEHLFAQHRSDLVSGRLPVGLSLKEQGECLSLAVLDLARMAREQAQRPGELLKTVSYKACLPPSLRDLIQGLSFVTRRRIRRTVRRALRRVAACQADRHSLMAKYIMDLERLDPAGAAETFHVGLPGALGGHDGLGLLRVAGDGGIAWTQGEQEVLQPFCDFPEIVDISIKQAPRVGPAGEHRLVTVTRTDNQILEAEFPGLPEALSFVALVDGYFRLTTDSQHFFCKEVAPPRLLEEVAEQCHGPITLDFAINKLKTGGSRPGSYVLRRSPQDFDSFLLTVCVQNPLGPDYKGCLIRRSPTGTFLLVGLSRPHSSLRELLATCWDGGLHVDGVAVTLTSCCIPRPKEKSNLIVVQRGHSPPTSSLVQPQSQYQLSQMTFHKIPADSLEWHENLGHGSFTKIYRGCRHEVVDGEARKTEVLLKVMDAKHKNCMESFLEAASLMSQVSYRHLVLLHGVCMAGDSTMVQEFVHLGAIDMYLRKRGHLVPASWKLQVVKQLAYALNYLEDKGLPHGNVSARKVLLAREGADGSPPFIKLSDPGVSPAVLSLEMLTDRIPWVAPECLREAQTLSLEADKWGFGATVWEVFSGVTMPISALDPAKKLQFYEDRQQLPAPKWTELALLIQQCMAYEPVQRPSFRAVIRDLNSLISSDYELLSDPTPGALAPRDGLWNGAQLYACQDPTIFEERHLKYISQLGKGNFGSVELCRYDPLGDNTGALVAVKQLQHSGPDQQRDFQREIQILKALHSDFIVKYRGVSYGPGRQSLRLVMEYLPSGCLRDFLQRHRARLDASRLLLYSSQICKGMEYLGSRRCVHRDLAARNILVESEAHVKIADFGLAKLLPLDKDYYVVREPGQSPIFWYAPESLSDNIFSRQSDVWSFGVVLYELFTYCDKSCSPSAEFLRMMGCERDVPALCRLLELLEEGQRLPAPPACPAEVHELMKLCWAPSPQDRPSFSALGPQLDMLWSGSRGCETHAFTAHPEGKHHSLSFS

Structure (SMILES) | IC50 (Colo205 cells; incubated for 72 hours) [nM] | Ki (JAK3) [nM] | IC50 (Colo205 cells; incubated for 96 hours) [nM] | Ki (JAK3; read-out: JAK3 Ki value) [nM]
Cc1cc(Nc2cc(N3CCC3)nc(Sc3ccc(NC(=O)CCC(F)(F)F)cc3)n2)[nH]n1 [Compound 121] | 30 to 200 | 10 to 500 |  | 
Cc1cc(Nc2cc(N3CCC3)nc(Sc3ccc(C(=O)Nc4ccccc4Cl)cc3)n2)[nH]n1 [Compound 48] |  |  | 50 to 1000 | 10 to 500
Cc1cc(Nc2cc(N3CCC3)nc(Sc3ccc(NC(=O)C(F)(F)F)cc3)n2)[nH]n1 [Compound 158] | > 200 |  |  | ≤ 10
Cc1cc(Nc2cc(N3CCC3)nc(Sc3ccc(C(=O)NC4CCCC4)cc3)n2)n[nH]1 [Compound 23] |  | 500 to 2000 | > 1000 | 
Cc1cc(Nc2cc(N3CC(N4CC[C@H](F)C4)C3)nc(Sc3ccc4ncccc4c3)n2)n[nH]1 [Compound 160] | ≤ 30 |  |  | ≤ 10
Cc1cc(Nc2cc(N3CCC3)nc(Sc3ccc(C(=O)N4CCCC4)cc3)n2)n[nH]1 [Compound 22] |  | 10 to 500 | > 1000 | 
Cc1cc(Nc2cc(N3CCC3)nc(Sc3ccc(NC(=O)c4ccncc4C(F)(F)F)cc3)n2)[nH]n1 [Compound 146] | ≤ 30 | 10 to 500 |  | 
CCCNC(=O)Nc1ccc(Sc2nc(Nc3cc(C)[nH]n3)cc(N3CCC3)n2)cc1 [Compound 73] |  |  | > 1000 | 500 to 2000
Cc1cc(Nc2cc(N3CC(C)(O)C3)nc(Sc3ccc(NC(=O)c4ccccc4C(F)(F)F)cc3)n2)[nH]n1 [Compound 115] | 30 to 200 | ≤ 10 |  | 
Cc1cc(Nc2cc(N3CCC3)nc(Sc3ccc(NC(=O)c4cc(C)nc(Cl)c4)cc3)n2)[nH]n1 [Compound 149] | > 200 | 10 to 500 |  | 
O=C(CC(F)(F)F)Nc1ccc(Sc2nc(Nc3cc[nH]n3)cc(N3CC(F)(C4CC4)C3)n2)cc1 [Compound 148] | > 200 | 10 to 500 |  | 
Cc1cc(Nc2cc(N3CCC3)nc(Sc3ccc(NC(=O)C4CC4(F)F)cc3)n2)[nH]n1 (stereo not shown) [Compound 112] | > 200 |  |  | ≤ 10
Cc1cc(Nc2cc(N3CCC3)nc(Sc3ccc(N)cc3)n2)[nH]n1 [Compound 108] |  |  | > 1000 | ≤ 10
Cc1cc(Nc2cc(N3CCC3)nc(Sc3ccc(NC(=O)c4ccc(CN(C)C)cc4)cc3)n2)[nH]n1 [Compound 137] |  |  | 50 to 1000 | 500 to 2000
Cc1cc(Nc2cc(N3CC(O)(C4CC4)C3)nc(Sc3ccc4ccccc4c3)n2)n[nH]1 [Compound 131] | > 200 | ≤ 10 |  | 
Cc1cc(Nc2cc(N3CCC3)nc(Sc3ccc(C(=O)NCc4ccccc4Cl)cc3)n2)n[nH]1 [Compound 24] |  | 500 to 2000 | > 1000 | 
Cc1cc(Nc2cc(N3CC(F)(C4CC4)C3)nc(Sc3ccc(N)cc3)n2)[nH]n1 [Compound 209] |  | ≤ 10 |  | 
COc1ccc(C(=O)Nc2ccc(Sc3nc(Nc4cc(C)n[nH]4)cc(N4CCC4)n3)cc2)cc1 [Compound 117] | > 200 | 10 to 500 |  | 
Cc1cc(Nc2cc(N3CCC3)nc(Sc3ccc(NC(=O)C(C)(C)C)cc3)n2)[nH]n1 [Compound 114] | > 200 | 500 to 2000 |  | 
CC(=O)Nc1cccc(Sc2nc(Nc3cc(C)n[nH]3)cc(N3CC(F)(C4CC4)C3)n2)c1 [Compound 188] | > 200 |  |  | 10 to 500

Structure (SMILES) | IC50 (Colo205 cells; incubated for 72 hours) [nM] | Ki (JAK3) [nM] | IC50 (Colo205 cells; incubated for 96 hours) [nM] | Ki (JAK3; read-out: JAK3 Ki value) [nM]
Cc1ccc(C(=O)Nc2ccc(Sc3nc(Nc4cc(C)n[nH]4)cc(N4CCC4)n3)cc2)cn1 [Compound 145] | > 200 | 10 to 500 |  | 
Cc1ccc2cc(Sc3nc(Nc4cc(C)[nH]n4)cc(N4CC(C5CCC(F)C5)C4)n3)ccc2n1 (stereo not shown) [Compound 198] | ≤ 30 |  |  | 10 to 500
COC1CN(c2cc(Nc3cc(C)n[nH]3)nc(Sc3ccc(NC(=O)c4ccccc4C(F)(F)F)cc3)n2)C1 [Compound 126] | 30 to 200 |  |  | 10 to 500
Cc1cc(Nc2cc(N3CCC3)nc(Sc3ccc(NC(=O)c4ccccc4N(C)C)cc3)n2)[nH]n1 [Compound 124] | > 200 | 500 to 2000 |  | 
Cc1cc(Nc2cc(N3CC(N4CCOCC4)C3)nc(Sc3ccc(NC(=O)CC(F)(F)F)cc3)n2)[nH]n1 [Compound 199] | ≤ 30 |  |  | ≤ 10
CCC(=O)Nc1ccc(Sc2nc(Nc3cc(C)n[nH]3)cc(N3CC(C)(OC(C)(C)C)C3)n2)cc1 [Compound 96] |  | 10 to 500 | ≤ 50 | 
Cc1cc(Nc2cc(N3CCC3)nc(Sc3ccc(C(=O)NCc4ccccc4)cc3)n2)n[nH]1 [Compound 19] |  | 10 to 500 | > 1000 | 
Cc1cc(Nc2cc(N3CC(N4CCOCC4)C3)nc(Sc3ccc(NC(=O)C4(C(F)(F)F)CC4)cc3)n2)[nH]n1 [Compound 191] | ≤ 30 |  |  | 10 to 500
Cc1cc(Nc2cc(N3CCC3)nc(Sc3ccc(NC(=O)C(C)CC(F)(F)F)cc3)n2)[nH]n1 (stereo not shown) [Compound 127] | 30 to 200 | 500 to 2000 |  | 
Cc1cc(Nc2cc(N3CCC3)nc(Sc3ccc(NC(=O)NCc4ccccc4)cc3)n2)n[nH]1 [Compound 74] |  | 10 to 500 | > 1000 | 
CCC(=O)Nc1ccc(Sc2nc(Nc3cc(C)n[nH]3)cc(N3CC(C)(OC(C)C)C3)n2)cc1 [Compound 95] |  | 10 to 500 | ≤ 50 | 
Cc1cc(Nc2cc(N3CC(F)(C4CC4)C3)nc(Sc3ccc(-c4ncc(C)o4)cc3)n2)[nH]n1 [Compound 175] | > 200 | 10 to 500 |  | 
CCC(=O)Nc1ccc(Sc2nc(Nc3cc(C4CC4)n[nH]3)cc(N3CC(N4CCOCC4)C3)n2)cc1 [Compound 78] |  |  | ≤ 50 | ≤ 10
Cc1cc(Nc2cc(N3CCC3)nc(Oc3ccc(NC(=O)c4ccccc4C(F)(F)F)cc3)n2)[nH]n1 [Compound 134] | 30 to 200 | 10 to 500 |  | 
Cc1cc(Nc2cc(N3CC(F)(C4CC4)C3)nc(Sc3ccc4nc(C(F)(F)F)cn4c3)n2)[nH]n1 [Compound 190] | 30 to 200 |  |  | 10 to 500
Cc1cc(Nc2cc(N3CC(F)(C4CC4)C3)nc(Sc3ccc4nc(C(F)(F)F)[nH]c4c3)n2)[nH]n1 [Compound 202] | 30 to 200 | ≤ 10 |  | 
Cc1cc(Nc2cc(N3CC(N4CCCC4)C3)nc(Sc3ccc4ncccc4c3)n2)n[nH]1 [Compound 159] | ≤ 30 | ≤ 10 |  | 
Cc1cc(Nc2cc(N3CCC3)nc(Sc3ccc(NS(C)(=O)=O)cc3)n2)[nH]n1 [Compound 150] | > 200 | ≤ 10 |  | 
Cc1ccc2cc(Sc3nc(Nc4cc(C)[nH]n4)cc(N4CC(N5CCCC5)C4)n3)ccc2n1 [Compound 182] | ≤ 30 | 10 to 500 |  | 
CCC(=O)Nc1ccc(Sc2nc(Nc3cc(C)n[nH]3)cc(N3CC(O)(C(F)(F)F)C3)n2)cc1 [Compound 94] |  |  | 50 to 1000 | 10 to 500

Source: patent US8637511B2, “Aminopyrimidines useful as kinase inhibitors” (Vertex Pharmaceuticals Incorporated, priority 2005, dated 2014)
